Reference: article PMC11580958 (bioRxiv, 2024)
Each block holds one molecule with its values, some of them ahead of it. Residues, ends and D or L forms follow the SMILES beside them. *: point of attachment. Cbz = O=C(OCc1ccccc1)*

Tests used:
BMDCs = assay: […] antigen presentation on DCs; type: cell-based, C57BL/6 mouse; conditions: CpG adjuvant, treatment 12-24 h, flow cytometry
CRBN protein = CRBN protein (Homo sapiens, UniProt Q96SW2); assay: Nano ITC measurement of PROTAV-CRBN binding; conditions: data did not fit the binding model
Sequence of CRBN protein (Q96SW2 whole entry, species assumed): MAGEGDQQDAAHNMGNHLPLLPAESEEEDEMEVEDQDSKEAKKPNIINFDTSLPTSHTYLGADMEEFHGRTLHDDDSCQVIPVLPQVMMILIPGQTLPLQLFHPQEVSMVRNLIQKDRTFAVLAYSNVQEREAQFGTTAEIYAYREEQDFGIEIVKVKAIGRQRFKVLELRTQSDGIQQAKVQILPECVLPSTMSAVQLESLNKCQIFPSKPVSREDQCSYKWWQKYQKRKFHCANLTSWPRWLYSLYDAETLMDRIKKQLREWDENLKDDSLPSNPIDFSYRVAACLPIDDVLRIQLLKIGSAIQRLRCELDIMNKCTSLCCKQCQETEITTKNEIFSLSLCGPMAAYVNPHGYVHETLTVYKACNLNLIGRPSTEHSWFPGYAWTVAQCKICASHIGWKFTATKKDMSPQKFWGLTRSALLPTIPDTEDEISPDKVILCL

Molecule: CC(C)C[C@@H](C=O)NC(=O)[C@H](CC(C)C)NC(=O)[C@H](CC(C)C)NC(=O)OCc1ccccc1 [MG132] (Cbz-Leu-Leu-Leu-aldehyde)
H-2Kb/SIINFEKL presentation on DCs (in words) (BMDCs): reduced the level of SIINFEKL presentation on DCs

Binding to CRBN (in words) (CRBN protein): negligible binding
B1: chicken ovalbumin (protein)
chain: MGSIGAASMEFCFDVFKELKVHHANENIFYCPIAIMSALAMVYLGAKDSTRTQINKVVRFDKLPGFGDSIEAQCGTSVNVHSSLRDILNQITKPNDVYSFSLASRLYAEERYPILPEYLQCVKELYRGGLEPINFQTAADQARELINSWVESQTNGIIRNVLQPSSVDSQTAMVLVNAIVFKGLWEKAFKDEDTQAMPFRVTEQESKPVQMMYQIGLFRVASMASEKMKILELPFASGTMSMLVLLPDEVSGLEQLESIINFEKLTEWTSSNVMEERKIKVYLPRMKMEEKYNLTSVLMAMGITDVFSSSANLSGISSAESLKISQAVHAAHAEINEAGREVVGSAEAGVDAASVSEEFRADHPFLFCIKHIATNAVLFFGRCVSP
